Reference: US5233050A, “Antimigraine alkyl indole” (Merck & Co., Inc., priority 1992, dated 1993)

What was measured:
5-HT1A = target: T1, 5-HT1A (Rattus norvegicus, UniProt P19327); experiment: 5-HT1A radioligand binding assay
T1 construct: from tissue
T1 sequence (P19327 1-422): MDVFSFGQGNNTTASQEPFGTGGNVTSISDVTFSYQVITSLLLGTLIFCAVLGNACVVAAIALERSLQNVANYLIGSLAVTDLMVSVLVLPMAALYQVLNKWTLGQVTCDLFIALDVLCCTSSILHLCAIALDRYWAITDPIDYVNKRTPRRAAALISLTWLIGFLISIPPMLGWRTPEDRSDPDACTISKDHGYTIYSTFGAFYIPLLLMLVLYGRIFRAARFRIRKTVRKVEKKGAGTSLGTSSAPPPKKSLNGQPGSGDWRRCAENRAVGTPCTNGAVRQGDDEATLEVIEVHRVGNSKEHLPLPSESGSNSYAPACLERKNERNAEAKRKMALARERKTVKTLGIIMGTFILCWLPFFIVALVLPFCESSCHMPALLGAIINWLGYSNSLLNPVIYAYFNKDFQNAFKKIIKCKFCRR
Protocol: (§1) 5-HT1D radioligand binding assay was carried out according to Heuring and Peroutka (Heuring, R. E., and Peroutka, S. J., J. Neurosci., 7:894-903, 1987) with slight modifications as follows. Polypropylene tubes containing ^3 H-5HT (2 nM), cyanopindolol (100 nM), mesulergine (100 nM) and crude pig striatal membranes (10 mg wet weight per tube) in a final assay volume of 1 ml were used. All reagents and tissues were made up in […] Tris. HCl containing 0.1% ascorbate, 10 μM pargyline and 4 mM CaCl2 (pH 7.7 at room temperature). 5-HT (10 μM) was used to define non-specific binding. The incubation was initiated by the addition of membranes and carried out for 30 minutes at 37° C. Following incubation, membranes were rapidly filtered under vacuum through Whatmann GF/B filters using a Brandel Cell Harvester, followed by 2×3 ml washes with 50 mM Tris. HCl (pH 7.7 at room temperature). Bound radioactivity was determined by liquid scintillation spectrometry. 5-HT1A and 5-HT2 radioligand binding assays were performed according to Hall, et al., J. Neurochem., 44, 1685-1696, 1985 and Titeler, et al., Eur. J. Pharmacol., 117, 145-146, 1987, respectively.

5-HT1D = 5-HT1D radioligand binding assay (3H-5HT, crude pig striatal membranes); settings: for % inhibition of binding, 5-HT1D: mean of triplicates
Protocol: as §1

5-HT2 = target: T2, 5-HT2 (Rattus norvegicus, UniProt P14842); experiment: 5-HT2 radioligand binding assay; settings: mean of triplicates
T2 construct: from tissue; host or cells: rat cortical membranes (inferred from the cited Titeler et al)
Protocol: as §1

T2 sequence (P14842 whole entry): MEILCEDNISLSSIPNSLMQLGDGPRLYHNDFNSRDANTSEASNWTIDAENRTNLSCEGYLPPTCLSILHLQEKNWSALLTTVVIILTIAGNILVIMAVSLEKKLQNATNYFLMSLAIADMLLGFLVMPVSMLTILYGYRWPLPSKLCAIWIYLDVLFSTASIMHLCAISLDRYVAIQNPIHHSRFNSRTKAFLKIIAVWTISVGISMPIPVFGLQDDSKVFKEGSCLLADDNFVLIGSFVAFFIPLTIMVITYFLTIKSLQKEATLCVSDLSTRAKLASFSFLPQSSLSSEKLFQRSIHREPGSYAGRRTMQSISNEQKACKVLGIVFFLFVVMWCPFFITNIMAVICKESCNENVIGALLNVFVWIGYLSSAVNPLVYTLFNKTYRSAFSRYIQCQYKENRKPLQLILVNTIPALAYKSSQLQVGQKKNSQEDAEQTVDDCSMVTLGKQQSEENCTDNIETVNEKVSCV

| Structure (SMILES) | inhibition at 4.1 µM (5-HT1A; 4.1 μM, mean of triplicates) | inhibition at 41 µM (5-HT1A; 41 μM, mean of triplicates) | affinity for 5-HT1A relative to 5-HT1D and 5-HT2 (5-HT1A; 5-HT1A versus 5-HT1D and 5-HT2) | % inhibition of binding, 5-HT1D (5-HT1D; 4.1 μM) | % inhibition of binding, 5-HT1D (5-HT1D; 41 μM) | inhibition at 4.1 µM (5-HT2; 4.1 μM) | inhibition at 41 µM (5-HT2; 41 μM) | IC50 (5-HT1A) | rank order of affinity for these subtypes (5-HT1D; 5-HT1D, 5-HT1A, 5-HT2, for comparison) | pIC50, 5-HT1D (5-HT1D; for comparison) |
| --- | --- | --- | --- | --- | --- | --- | --- | --- | --- | --- |
| C=CC(C)(C)n1cc(CN(C)C)c2ccccc21 [Compound I, 1-(1,1-dimethylallyl)-3-dimethylaminomethylindole] | 20% | 62% | less affinity for 5-HT1A than for 5-HT1D and 5-HT2 receptor subtypes | 44% | 81% | 42% | 86% |  |  |  |
| CNS(=O)(=O)Cc1ccc2[nH]cc(CCN(C)C)c2c1 [sumatriptan, reference compound] |  |  |  |  |  |  |  | 501 nM | 5-HT1D >5-HT1A >5-HT2 | 7.7 |
